The nature of data set [1]: Solubility and aggregation in PBS buffer by NMR (SPAM filter, 1H 1D and WaterLOGSY). It counts as physicochemical. The conditions noted are these: for solubility and aggregation in PBS (in words): NMR; for solubility at 20 µM / solubility at 50 µM / solubility at 100 µM / aggregation in PBS buffer by NMR / solubility: PBS pH 7.5, 1 μM ZnCl2, 1 mM DTT, 10% D2O, 1% DMSO-d6; for solubility at 100 µM: theoretical concentration 100 μM; for aggregation in PBS buffer by NMR: WaterLOGSY. The text has this:
Under these circumstances, it was decided to explore the solubility of all the synthetized compounds, regardless of their biological activities, to find a suitable candidate for the validation of our working hypothesis, i.e., that the compounds exert their activities by directly binding to RNF5. For that, we first calculated the predicted octanol/water partition coefficient (log Po/w) and the predicted aqueous solubility (log S) of all the analogues by QikProp (Schrödinger Release 2022-1: QikProp, Schrödinger, LLC, New York, NY, 2021, Table S1). […] To shrink down the number of compounds for solubility experiments, just the ones that had −2.0 < log Po/w < 6 and −6.5 < log S <0.5 values were selected. Among them, the PBS solubility was determined for five representative analogues: (i) 12 and 29 bearing different substituents on the benzyl group A; (ii) 34 and 40 showing the replacement of rings B and C with pyridine-4-yl moieties; (iii) 42 in which the N-phenylbenzamidine portion was replaced with a pyridine-2-yl moiety (Table 1).
All the NMR experiments were recorded at 298 K using a 5 mm CryoProbe QCI ^1H/^19F–^13C/^15N–D quadruple resonance, a shielded z-gradient coil, and an automatic sample changer SampleJet NMR system with temperature control. The solubility of the compounds were evaluated by ^1H 1D experiments and aggregation by WaterLOGSY, testing the compounds in buffer PBS pH 7,5, 1 μM ZnCl2, 1 mM DTT, 10% D2O (for the lock signal), and 1% DMSO-d6 at the theoretical concentrations of 20, 50, and 100 μM in the presence of 200 μM 4-trifluoromethyl benzoic acid (internal reference). For all samples, a 1D ^1H NMR experiment was recorded, the water suppression was obtained using the standard NOESY (nuclear Overhauser effect spectroscopy) preset Bruker pulse sequence, with 64k data points, a spectral width (sw) of 30 ppm, 64 scans, acquisition time (aq) of 1.835 s, a relaxation delay (d1) of 4 s, and a mixing time of 10 ms. […] The data were multiplied by an exponential window function with 1 Hz line broadening prior to Fourier transformation. For NMR binding experiments, the compounds were tested at 50 μM in buffer PBS pH 7.5, 1 μM ZnCl2, 1 mM DTT, 10% D2O (for the lock signal), and 1% DMSO-d6 in the absence and in the presence of 3 μM RNF5. WaterLOGSY experiments were recorded with the same parameters used in solubility assays, but with a higher number of scans (512); STD experiments were recorded with 128 scans, with two on (0.7 and 1 ppm) and one off (−50 ppm) resonance spectra, a Gaussian-shaped train pulse of 50 ms each was employed, with a total saturation time of the protein envelope of 5, 3, 2, 1.5, 1, or 0.5 s. A T1ρ filter of 2 ms was employed in STD experiments to eliminate the background signals from the protein. The STD spectrum was obtained by subtraction of the on-resonance spectrum from the off-resonance spectrum. Subtraction was performed by phase cycling to minimize artifacts arising from magnet and temperature instabilities.

The target of data set [2] is T1, recombinant RNF5 (1–117) protein (Homo sapiens, UniProt Q99942).
T1 construct: human RNF5 protein (aa 1–117) truncated to exclude the transmembrane domains; GST (followed by TEV protease site) (N, cleaved yes); host or cells: Escherichia coli BL21(DE3)
Put plainly: WaterLOGSY and STD NMR binding experiments. The conditions noted are these: compound 50 μM, 3 μM RNF5 (1–117). The source says: The bindings of compounds 12, 40, and 42 were initially evaluated by MicroScale Thermophoresis (MST) using a purified recombinant truncated form of RNF5 (aa 1–117), lacking the C-terminal transmembrane domains. The protein was covalently labeled with a red dye (NHS) on the primary amines (lysine residues). […] NMR experiments on the recombinant RNF5 form were further performed to test the direct binding of the three compounds to the protein with a more sensitive, label-free, independent approach. Analogs 12, 40, and 42 were tested at 50 μM in the absence and in the presence of 3 μM RNF5 (1–117) protein. […] Indeed, for all three compounds, the NMR signals of their methyls are present in the STD spectra, and in the WaterLOGSY spectra, their signals change from negative to positive in the presence of the protein, indisputably highlighting the formation of compound–protein binding events. […] It has to be noted that NMR is a very sensitive technique that allows detecting also compounds weakly binding to their target protein independent of the possible downstream biological effects. […]
All the NMR experiments were recorded at 298 K using a 5 mm CryoProbe QCI ^1H/^19F–^13C/^15N–D quadruple resonance, a shielded z-gradient coil, and an automatic sample changer SampleJet NMR system with temperature control. […] For all samples, a 1D ^1H NMR experiment was recorded, the water suppression was obtained using the standard NOESY (nuclear Overhauser effect spectroscopy) preset Bruker pulse sequence, with 64k data points, a spectral width (sw) of 30 ppm, 64 scans, acquisition time (aq) of 1.835 s, a relaxation delay (d1) of 4 s, and a mixing time of 10 ms. […] WaterLOGSY experiments were recorded with the same parameters used in solubility assays, but with a higher number of scans (512); STD experiments were recorded with 128 scans, with two on (0.7 and 1 ppm) and one off (−50 ppm) resonance spectra, a Gaussian-shaped train pulse of 50 ms each was employed, with a total saturation time of the protein envelope of 5, 3, 2, 1.5, 1, or 0.5 s. […]

Where [3] appears, read: PBS buffer, aqueous buffer, kinetic from dmso stock, theoretical concentration 20 μM.
The mark [4] stands for this setting: PBS buffer, aqueous buffer, kinetic from dmso stock, theoretical concentration 50 μM.
Where [5] appears, read: PBS buffer, aqueous buffer, kinetic from dmso stock.
Setting [6] is: PBS buffer, aqueous buffer, kinetic from dmso stock, theoretical concentration 20 μM, read-out: solubility in PBS buffer by NMR, 20 μM.
Setting [7] is: theoretical concentration 50 μM.

Usually solubility stands for the concentration that dissolves in the medium under given conditions.

Molecules are shown by their SMILES. ≈ marks a conversion by molar mass, not a printed value. Read-outs that look alike come from different tables or passages of the source.

T1 sequence (Q99942 1-117): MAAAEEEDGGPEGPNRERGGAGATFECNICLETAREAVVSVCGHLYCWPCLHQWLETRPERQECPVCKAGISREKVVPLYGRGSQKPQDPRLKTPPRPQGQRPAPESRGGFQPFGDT

Take `Cc1ns/c(=N\c2ccccn2)n1Cc1ccccc1` [Compound 42, (Z)-4-Benzyl-3-methyl-N-(pyridin-2-yl)-1,2,4-thiadiazol-5(4H)-imine]: the “solubility and aggregation in PBS (in words)” value (“solubility and aggregation” for short) in data set [1] (PBS buffer) was “no aggregation and solubility suitable for in vitro/biophysical binding experiments”. This molecule came in with a solubility at 20 µM in data set [1] (setting [3]) of 20 µM (≈ 5.65 µg/mL). This molecule also gave a solubility at 50 µM in data set [1] (setting [4]) of 40 µM (≈ 11.3 µg/mL). The molecule further had a solubility at 100 µM in data set [1] (setting [5]) of 5 µM (≈ 1.41 µg/mL). In addition, the “aggregation in PBS buffer by NMR” value in data set [1] is given as “no”. The “binding to RNF5 by WaterLOGSY and STD NMR” value in data set [2] is given as “bind the recombinant RNF5 protein”.

With `Cc1ns/c(=N\C(=N\c2ccccc2)c2ccccc2)n1Cc1ccccc1` [inh-2, reference compound], the solubility in data set [1] (setting [6]) is below 5 µM. Moreover, in data set [1], the “aggregation in PBS buffer by NMR” value is given as “no” and the solubility at 100 µM is on record as below 5 µM. The molecule also displayed a solubility at 50 µM in data set [1] (setting [7]) below 5 µM.

For `Cc1ns/c(=N\C(=N\c2ccccc2)c2ccccc2)n1Cc1ccc(C(=O)O)cc1` [Compound 12, 4-(((Z)-3-Methyl-5-(((E)-phenyl(phenylimino)methyl)imino)-1,2,4-thiadiazol-4(5H)-yl)methyl)benzoic Acid], the “solubility and aggregation” value in data set [1] (PBS buffer) is “no aggregation and solubility suitable for in vitro/biophysical binding experiments”. Moreover, the solubility at 20 µM in data set [1] (setting [3]) turned out to be 20 µM (≈ 8.57 µg/mL). Further, the solubility at 50 µM in data set [1] (setting [4]) is 50 µM (≈ 21.4 µg/mL). The solubility at 100 µM in data set [1] (setting [5]) turned out to be 100 µM (≈ 42.9 µg/mL). Also, in data set [1], the “aggregation in PBS buffer by NMR” value was “no”. For the same molecule, in data set [2], the “binding to RNF5 by WaterLOGSY and STD NMR” value was “bind the recombinant RNF5 protein”.

Consider `Cc1ns/c(=N\C(=N\c2ccncc2)c2ccccc2)n1Cc1ccccc1` [Compound 40, (E)-N-((Z)-4-Benzyl-3-methyl-1,2,4-thiadiazol-5(4H)-ylidene)-N′-(pyridin-4-yl)benzimidamide], for which the “solubility and aggregation” value in data set [1] (PBS buffer) was “no aggregation and solubility suitable for in vitro/biophysical binding experiments”. In data set [1] (setting [3]), this molecule came in with a solubility at 20 µM of 20 µM (≈ 7.71 µg/mL). In data set [1] (PBS buffer, aqueous buffer, kinetic from dmso stock, theoretical concentration 50 μM, read-out: solubility in PBS buffer by NMR, 50 μM), the solubility is 30 µM (≈ 11.6 µg/mL). The “aggregation in PBS buffer by NMR” value in data set [1] was “no”. Moreover, the “binding to RNF5 by WaterLOGSY and STD NMR” value in data set [2] is given as “bind the recombinant RNF5 protein”.

For the molecule `COc1cccc(Cn2c(C)ns/c2=N\C(=N\c2ccccc2)c2ccccc2)c1` [Compound 16, (E)-N-((Z)-4-(3-Methoxybenzyl)-3-methyl-1,2,4-thiadiazol-5(4H)-ylidene)-N′-phenylbenzimidamide], the solubility in data set [1] (setting [6]) is below 5 µM. Besides, in data set [1], the “aggregation in PBS buffer by NMR” value is “no” and the solubility at 100 µM is below 5 µM. Further, the solubility at 50 µM in data set [1] (setting [7]) is on record as below 5 µM.

For the origin of these results see paper PMC10388311, “Innovative Strategy toward Mutant CFTR Rescue in Cystic Fibrosis: Design and Synthesis of Thiadiazole Inhibitors of the E3 Ligase RNF5” (Journal of Medicinal Chemistry, 2023).
